Laboratory results from US11498896B2 (The Broad Institute, Inc., priority 2014, dated 2022).
pEC50, pIC50: −log10 of the molar value.

Tests used:
human D2R/β-arrestin [1] = target: T1, human D2R/β-arrestin (Homo sapiens (Human), UniProt P14416); test: β-arrestin agonist assay (PathHunter); format: cell-based; conditions: CHO-K1 cells expressing human D2R/β-arrestin; agonist mode
Protocol: The detection reagent (9.6 μL, Buffer:Emerald II:Galactor-Star in a 19:5:1 ratio, i.e., 14.06 mL:3.7 mL:0.74 mL=18.5 mL) was then added to the agonist plates.

human D2R/β-arrestin [2] = target: T1, human D2R/β-arrestin; test: Gi/cAMP agonist assay (Lance Ultra cAMP, forskolin); format: cell-based; conditions: CHO-K1 cells expressing human D2R/β-arrestin; agonist mode, 2.5 μM forskolin
Protocol: Eu-cAMP tracer solution (10 μl, PerkinElmer, 360 μl of Tracer in 17.64 ml kit buffer) and ULight-anti-cAMP solution (10 μl, 120 μL antibody in 17.88 ml kit buffer) was then added to each well.

human D2R/β-arrestin [3] = target: T1, human D2R/β-arrestin; test: cell-based; conditions: β-arrestin Antagonist, CHO-K1 cells expressing human D2R/β-arrestin; antagonist mode, quinpirole 130 nM
human D2R/β-arrestin [4] = target: T1, human D2R/β-arrestin; test: cell-based; conditions: cAMP Antagonist, CHO-K1 cells expressing human D2R/β-arrestin; antagonist mode, 2.5 μM forskolin and 2.7 nM quinpirole
Protocol: Cells were prepared for assays by growing cultures for up to 2 weeks (from about 6-20 passages). A vial of frozen cells was thawed in a water bath held at 37° C. The cells were then transferred into a 50 ml tube with 10 ml growth media. The vial was rinsed with growth media and the contents transferred to the 50 ml tube. The 50 ml tube was centrifuged at 1200 rpm for 5 minutes at room temperature. […] When the cells reached about 90% confluence (approximately 3 days between passages), the cells were passaged and used for either the agonist or antagonist assays as described below.
The cells were prepared for Gi/cAMP assays as described above. The assays were performed using a PE Lance Ultra cAMP kit (TRF0263). The cells were grown on 225 mm dishes, then washed once with 1×PBS (Cellgro) before digestion with 2.5 ml 1× Detachment reagent (DRX 92-0009) for about 2 minutes. PBS (20 ml) was then added to the plate, and the cells were transferred to a 50 ml centrifuge tube, and centrifuged at room temperature using BD Dynac III, at 1200 rpm for 5 minutes. […] The plates were then incubated at room temperature for about 30 minutes before addition of Eu-cAMP tracer solution (10 μl, PerkinElmer) and then ULight-anti-cAMP solution (10 μl) to each well.

T1 sequence (P14416 whole entry): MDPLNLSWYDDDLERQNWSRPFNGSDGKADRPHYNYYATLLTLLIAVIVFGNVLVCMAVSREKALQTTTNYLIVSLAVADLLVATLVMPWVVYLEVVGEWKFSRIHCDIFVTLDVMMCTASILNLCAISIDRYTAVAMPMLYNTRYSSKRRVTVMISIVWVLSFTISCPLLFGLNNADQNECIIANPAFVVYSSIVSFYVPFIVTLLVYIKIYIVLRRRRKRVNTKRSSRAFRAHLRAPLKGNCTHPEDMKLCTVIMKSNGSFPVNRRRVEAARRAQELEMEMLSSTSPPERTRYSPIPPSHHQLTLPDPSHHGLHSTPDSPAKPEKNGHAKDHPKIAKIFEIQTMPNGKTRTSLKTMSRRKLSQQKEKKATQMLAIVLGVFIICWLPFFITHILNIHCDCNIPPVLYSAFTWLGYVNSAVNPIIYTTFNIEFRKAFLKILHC

Row | Compound | pEC50 (human D2R/β-arrestin [1]) | pEC50 (human D2R/β-arrestin [2]) | pIC50 (human D2R/β-arrestin [3]) | pIC50 (human D2R/β-arrestin [4])
1 | CC1(Oc2ccc(Cl)cc2)CCN(CCOc2ccccc2C(F)(F)F)C1 (centres unmarked) [Compound 8, 3-(4-chlorophenoxy)-3-methyl-1-(2-(2-(trifluoromethyl)phenoxy)ethyl) pyrrolidine] | < 4.52 | < 4.52 | 5.00 to 6.00 | 6.00 to 7.00
2 | CC1(Oc2ccc(Cl)cc2)CCN(CCOc2cccc(-c3ccccc3)c2)C1 (centres unmarked) [Compound 37, 1-(2-([1,1′-biphenyl]-3-yloxy)ethyl)-3-(4-chlorophenoxy)-3-methylpyrrolidine] | < 4.52 | < 4.52 | 5.00 to 6.00 | 6.00 to 7.00
3 | CC1(Oc2ccc(Cl)cc2)CCN(CCCCOc2ccccc2)C1 (centres unmarked) [Compound 3, 3-(4-chlorophenoxy)-3-methyl-1-(4-phenoxybutyl)pyrrolidine] | < 4.52 | < 4.52 | 5.00 to 6.00 | 6.00 to 7.00
4 | CC(C)Oc1cc(F)ccc1OCCN1CCC(C)(Oc2ccc(Cl)cc2)CC1 [Compound 191, 4-(4-chlorophenoxy)-1-(2-(4-fluoro-2-isopropoxyphenoxy)ethyl)-4-methylpiperidine] | < 4.52 | < 4.52 | 5.00 to 6.00 | 6.00 to 7.00
5 | CC1(Oc2ccc(Cl)cc2)CCN(CCOc2ccncc2)CC1 [Compound 183, 4-(2-(4-(4-chlorophenoxy)-4-methylpiperidin-1-yl)ethoxy)pyridine] | 5.00 to 6.00 | 6.00 to 7.00 | 5.00 to 6.00 | < 4.52
6 | CC1(Oc2ccc(Cl)cc2)CCN(CCOc2ccccc2Cl)C1 (centres unmarked) [Compound 5, 3-(4-chlorophenoxy)-1-(2-(2-chlorophenoxy)ethyl)-3-methylpyrrolidine] | < 4.52 | < 4.52 | 6.00 to 7.00 | > 7.00
7 | CC1(Oc2ccc(Cl)cc2)CCN(CCOc2ccc(C(F)(F)F)cc2)C1 (centres unmarked) [Compound 17, 3-(4-chlorophenoxy)-3-methyl-1-(2-(4-(trifluoromethyl)phenoxy)ethyl) pyrrolidine] | < 4.52 | < 4.52 | 4.52 to 5.00 | 5.00 to 6.00
8 | CC1(C(=O)Nc2ccccc2)CCN(CC2COc3ccccc3O2)CC1 (centres unmarked) [Compound 204, 1-((2,3-dihydrobenzo[b][1,4]dioxin-2-yl)methyl)-4-methyl-N-phenylpiperidine-4-carboxamide] | < 4.52 | 6.00 to 7.00 | 5.00 to 6.00 | 6.00 to 7.00
9 | CC(C)C1(O)CCN(CCOc2ccccc2C(F)(F)F)CC1 [Compound 176, 4-isopropyl-1-(2-(2-(trifluoromethyl)phenoxy)ethyl)piperidin-4-ol] | < 4.52 | < 4.52 | 6.00 to 7.00 | > 7.00
10 | CC1(O)CCN(CCOc2ccccc2)CC1 [Compound 130, 4-Methyl-1-(2-phenoxyethyl)piperidin-4-ol] | 5.00 to 6.00 | 6.00 to 7.00 | 4.52 to 5.00 | < 4.52
11 | CC1(Oc2ccc(Cl)cc2)CCN(CCn2c(=O)ccc3cccc(C(F)(F)F)c32)CC1 [Compound 172, 1-(2-(4-(4-chlorophenoxy)-4-methylpiperidin-1-yl)ethyl)-8-(trifluoromethyl)quinolin-2(1H)-one] | < 4.52 | 5.00 to 6.00 | < 4.52 | < 4.52
12 | CC1(Oc2ccc(Cl)cc2)CCN(CC2COc3ccccc3O2)CC1 (centres unmarked) [Compound 142, 4-(4-chlorophenoxy)-1-((2,3-dihydrobenzo[b][1,4]dioxin-2-yl)methyl)-4-methylpiperidine] | 6.00 to 7.00 | > 7.00 | < 4.52 | < 4.52
13 | CC1(Oc2ccc(Cl)cc2)CCN(CCOc2ccc(C#N)cc2)CC1 [Compound 185, 4-(2-(4-(4-chlorophenoxy)-4-methylpiperidin-1-yl)ethoxy)benzonitrile] | < 4.52 | 5.00 to 6.00 | 4.52 to 5.00 | < 4.52
14 | CC1(C(=O)NC2CC2)CCN(CC2COc3ccccc3O2)CC1 (centres unmarked) [Compound 203, N-cyclopropyl-1-((2,3-dihydrobenzo[b][1,4]dioxin-2-yl)methyl)-4-methylpiperidine-4-carboxamide] | < 4.52 | > 7.00 | 6.00 to 7.00 | 5.00 to 6.00
15 | CC1(Oc2cccc(C(F)(F)F)c2)CCCN(CCOc2ccccc2Cl)C1 (centres unmarked) [Example 63, 1-(2-(2-Chlorophenoxy)ethyl)-3-methyl-3-(3-(trifluoromethyl)phenoxy) piperidine] | < 4.52 | < 4.52 | 5.00 to 6.00 | 5.00 to 6.00
16 | CC1(Oc2ccc(Cl)cc2)CCN(CCOc2ccc3ccncc3c2)C1 (centres unmarked) [Compound 34, 7-(2-(3-(4-chlorophenoxy)-3-methylpyrrolidin-1-yl)ethoxy)isoquinoline] | 5.00 to 6.00 | 6.00 to 7.00 | < 4.52 | < 4.52
17 | OC(c1ccccc1)C1(O)CCN(CCOc2ccccc2C(F)(F)F)CC1 (centres unmarked) [Example 103, 4-(Hydroxy(phenyl)methyl)-1-(2-(2-(trifluoromethyl)phenoxy)ethyl) piperidin-4-ol] | < 4.52 | < 4.52 | 6.00 to 7.00 | 6.00 to 7.00
18 | FC(F)(F)c1ccccc1OCCN1CCC2(CC1)CC2c1ccc(Cl)cc1 (centres unmarked) [Compound 216, 1-(4-chlorophenyl)-6-(2-(2-(trifluoromethyl)phenoxy)ethyl)-6-azaspiro[2.5]octane] | < 4.52 | < 4.52 | 4.52 to 5.00 | < 4.52

Now from value to compound:

Row | pEC50 (human D2R/β-arrestin [1]) | pEC50 (human D2R/β-arrestin [2]) | pIC50 (human D2R/β-arrestin [3]) | pIC50 (human D2R/β-arrestin [4]) | Compound
19 | < 4.52 | < 4.52 | > 7.00 | > 7.00 | OC1(Cc2ccccc2)CCN(CCOc2ccccc2C(F)(F)F)CC1 [Compound 114, 4-benzyl-1-(2-(2-(trifluoromethyl)phenoxy)ethyl)piperidin-4-ol]
20 | 6.00 to 7.00 | > 7.00 | < 4.52 | < 4.52 | CC1(Oc2ccc(Cl)cc2)CCN(CCOc2cccnc2)CC1 [Compound 182, 3-(2-(4-(4-chlorophenoxy)-4-methylpiperidin-1-yl)ethoxy)pyridine]
21 | < 4.52 | > 7.00 | 6.00 to 7.00 | > 7.00 | CC1(Oc2ccccn2)CCN(CCOc2ccccc2C(F)(F)F)CC1 [Example 105, 2-((4-methyl-1-(2-(2-(trifluoromethyl)phenoxy)ethyl)piperidin-4-yl)oxy) pyridine]
22 | < 4.52 | < 4.52 | 5.00 to 6.00 | 6.00 to 7.00 | COc1cc(F)ccc1OCCN1CCC(C)(Oc2ccc(Cl)cc2)CC1 [Compound 160, 4-(4-chlorophenoxy)-1-(2-(4-fluoro-2-methoxyphenoxy)ethyl)-4-methyl piperidine]
23 | < 4.52 | 4.52 to 5.00 | 6.00 to 7.00 | 5.00 to 6.00 | CC1(Oc2ccccc2Cl)CCN(CCOc2ccccc2C(F)(F)F)CC1 [Example 104, 4-(2-Chlorophenoxy)-4-methyl-1-(2-(2-(trifluoromethyl)phenoxy)ethyl) piperidine]
24 | 6.00 to 7.00 | > 7.00 | 5.00 to 6.00 | < 4.52 | CC1(Oc2ccccc2)CCN(CCCCOc2ccccc2)CC1 [Compound 121, 4-Methyl-4-phenoxy-1-(4-phenoxybutyl)piperidine]
25 | < 4.52 | > 7.00 | 6.00 to 7.00 | > 7.00 | COc1ccccc1OCCN1CCC(C)(Oc2ccccc2)CC1 [Example 72, 1-(2-(2-Methoxyphenoxy)ethyl)-4-methyl-4-phenoxypiperidine]
26 | < 4.52 | > 7.00 | 5.00 to 6.00 | < 4.52 | CC1(Oc2cccc(F)c2)CCN(CCOc2ccccc2)C1 (centres unmarked) [Example 52, 3-(3-fluorophenoxy)-3-methyl-1-(2-phenoxyethyl)pyrrolidine]
27 | 4.52 to 5.00 | > 7.00 | 6.00 to 7.00 | 6.00 to 7.00 | CC1(C(O)c2ccccc2)CCN(CCOc2ccccc2C(F)(F)F)CC1 (centres unmarked) [Example 107, (4-methyl-1-(2-(2-(trifluoromethyl)phenoxy)ethyl)piperidin-4-yl)(phenyl)methanol]
28 | 6.00 to 7.00 | > 7.00 | < 4.52 | < 4.52 | CC1(Oc2ccc(N)cc2)CCN(CCOc2ccccc2)C1 (centres unmarked) [Example 44, 4-((3-methyl-1-(2-phenoxyethyl)pyrrolidin-3-yl)oxy)aniline]
29 | > 7.00 | > 7.00 | < 4.52 | < 4.52 | CC1(Oc2ccccc2)CCN(CCOc2ccccc2F)CC1 [Example 87, 1-(2-(2-fluorophenoxy)ethyl)-4-methyl-4-phenoxypiperidine]
30 | < 4.52 | < 4.52 | 5.00 to 6.00 | 6.00 to 7.00 | CN(C)c1ccccc1OCCN1CCC(C)(Oc2ccccc2)CC1 [Example 111, N,N-dimethyl-2-(2-(4-methyl-4-phenoxypiperidin-1-yl)ethoxy)aniline]
31 | < 4.52 | 4.52 to 5.00 | < 4.52 | < 4.52 | CC1(Oc2ccccc2)CCN(CCn2cccc(C(F)(F)F)c2=O)CC1 [Example 77, 1-(2-(4-methyl-4-phenoxypiperidin-1-yl)ethyl)-3-(trifluoromethyl)pyridin-2(1H)-one]
32 | < 4.52 | < 4.52 | 5.00 to 6.00 | 6.00 to 7.00 | Cc1ccccc1OCCN1CCC(C)(Oc2ccc(Cl)cc2)C1 (centres unmarked) [Compound 6, 3-(4-chlorophenoxy)-3-methyl-1-(2-(o-tolyloxy)ethyl)pyrrolidine]
